Columns and labels:
Settings in all cases: incubation time: 72 h
MDA-MB-468 [1] = test: normalised response (% of control), CellTiter-Glo; higher = more viable cells (100 = DMSO, 0 = benzethonium chloride kill control)
Description: (§1)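 DSRT, 72 h incubation, CellTox Green / CellTiter-Glo readout. Signal is normalised to DMSO and benzethonium chloride controls. Value is the normalised response at the highest dose.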

Hs578T [2] = test: as above
Description: as §1

HCC1599 [3] = test: as above
Description: as §1

CAL-85-1 [4] = test: as above
Description: as §1

HDQ-P1 [5] = test: as above
Description: as §1

CAL-51 [6] = test: as above
Description: as §1

SK-BR-3 = test: as above
Description: as §1

CAL-120 [7] = test: as above
Description: as §1

HCC1143 [8] = test: as above
Description: as §1

DU-4475 [9] = test: as above
Description: as §1

HCC1937 [10] = test: as above
Description: as §1

MCF-10A [11] = test: as above
Description: as §1

MFM-223 [12] = test: as above
Description: as §1

BT-549 [13] = test: as above
Description: as §1

CAL-148 [14] = test: as above
Description: as §1

MDA-MB-453 [15] = test: as above
Description: as §1

MDA-MB-231 [16] = test: as above
Description: as §1

BT-474 [17] = test: as above
Description: as §1

MDA-MB-436 [18] = test: as above
Description: as §1

MDA-MB-468 [19] = test: normalised response (% of control), CellTox Green; higher = less cell death (100 = DMSO, 0 = benzethonium chloride kill control)
Outline: (§2)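 For each plate, 0.1 % DMSO was set to 100 and a positive kill control to 0. Breast cancer cell lines (20 µl suspension) were seeded into 384-well plates already holding compound at 5 concentrations in 10-fold steps over a 10,000-fold range chosen per compound, and incubated for 72 h. CellTox Green fluorescence at 485/520 nm was read before CellTiter-Glo luminescence, which followed 10 min at room temperature. Each value is the normalised signal at one concentration.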

Hs578T [20] = test: as above
Outline: as §2

HCC1599 [21] = test: as above
Outline: as §2

CAL-85-1 [22] = test: as above
Outline: as §2

HDQ-P1 [23] = test: as above
Outline: as §2

CAL-51 [24] = test: as above
Outline: as §2

CAL-120 [25] = test: as above
Outline: as §2

HCC1143 [26] = test: as above
Outline: as §2

DU-4475 [27] = test: as above
Outline: as §2

HCC1937 [28] = test: as above
Outline: as §2

MCF-10A [29] = test: as above
Outline: as §2

MFM-223 [30] = test: as above
Outline: as §2

BT-549 [31] = test: as above
Outline: as §2

CAL-148 [32] = test: as above
Outline: as §2

MDA-MB-453 [33] = test: as above
Outline: as §2

MDA-MB-231 [34] = test: as above
Outline: as §2

BT-474 [35] = test: as above
Outline: as §2

MDA-MB-436 [36] = test: as above
Outline: as §2

With `NS(=O)(=O)OC[C@@H]1C[C@@H](n2ccc3c(N[C@H]4CCc5ccccc54)ncnc32)C[C@@H]1O` [Pevonedistat] (10000 nM) the normalised response (MDA-MB-468 [1]) was 32.9%, the normalised response (Hs578T [2]) was 60.1% and the normalised response (HCC1599 [3]) was 18.2%. For the same compound, the normalised response (CAL-85-1 [4]) was 39.7%, the normalised response (HDQ-P1 [5]) was 72.6% and the normalised response (CAL-51 [6]) was 10%. It also gave a normalised response (SK-BR-3) of 30.4%, a normalised response (CAL-120 [7]) of 47.8% and a normalised response (HCC1143 [8]) of 33.9%. For the same compound, the normalised response (DU-4475 [9]) was 0.22%, the normalised response (HCC1937 [10]) was 60.3% and the normalised response (MCF-10A [11]) was 91.2%. For the same compound, the normalised response (MFM-223 [12]) was 49.9%, the normalised response (BT-549 [13]) was 27% and the normalised response (CAL-148 [14]) was 123%. The normalised response (MDA-MB-453 [15]) was 66.2%, the normalised response (MDA-MB-231 [16]) was 46% and the normalised response (BT-474 [17]) was 45.5%. It also gave a normalised response (MDA-MB-436 [18]) of 21%, a normalised response (MDA-MB-468 [19]) of 56.6% and a normalised response (Hs578T [20]) of 91%. The normalised response (HCC1599 [21]) was 72.6%, the normalised response (CAL-85-1 [22]) was 53.7% and the normalised response (HDQ-P1 [23]) was 90.5%. It also gave a normalised response (CAL-51 [24]) of -20.5%, a normalised response (CAL-120 [25]) of 97% and a normalised response (HCC1143 [26]) of 87.8%. It also gave a normalised response (DU-4475 [27]) of 73.8%, a normalised response (HCC1937 [28]) of 107% and a normalised response (MCF-10A [29]) of 95.7%. For the same compound, the normalised response (MFM-223 [30]) was 99%, the normalised response (BT-549 [31]) was 78.3% and the normalised response (CAL-148 [32]) was 90.7%. For the same compound, the normalised response (MDA-MB-453 [33]) was 95.5%, the normalised response (MDA-MB-231 [34]) was 100% and the normalised response (BT-474 [35]) was 104%. The normalised response (MDA-MB-436 [36]) was 28.2%.
`CN(C)C[C@@H]1CCn2cc(c3ccccc32)C2=C(C(=O)NC2=O)c2cn(c3ccccc23)CCO1` [Ruboxistaurin] (10000 nM) was tested, and the normalised response (MDA-MB-468 [1]) was 1.42%, the normalised response (Hs578T [2]) was 70.6% and the normalised response (HCC1599 [3]) was 78.9%. It also gave a normalised response (CAL-85-1 [4]) of 1.43%, a normalised response (HDQ-P1 [5]) of 35% and a normalised response (CAL-51 [6]) of 7.88%. The normalised response (SK-BR-3) was -0.11%, the normalised response (CAL-120 [7]) was 55.2% and the normalised response (HCC1143 [8]) was 48.1%. It also gave a normalised response (DU-4475 [9]) of 62.1%, a normalised response (HCC1937 [10]) of 38.5% and a normalised response (MCF-10A [11]) of 42.6%. For the same compound, the normalised response (MFM-223 [12]) was 34.9%, the normalised response (BT-549 [13]) was 10.1% and the normalised response (CAL-148 [14]) was 0.12%. It also gave a normalised response (MDA-MB-453 [15]) of 0.01%, a normalised response (MDA-MB-231 [16]) of 0.34% and a normalised response (BT-474 [17]) of 4.02%. For the same compound, the normalised response (MDA-MB-436 [18]) was 3.33%, the normalised response (MDA-MB-468 [19]) was -88% and the normalised response (Hs578T [20]) was 62.9%. It also gave a normalised response (HCC1599 [21]) of 91.6%, a normalised response (CAL-85-1 [22]) of -82.9% and a normalised response (HDQ-P1 [23]) of 26.2%. For the same compound, the normalised response (CAL-51 [24]) was -50.2%, the normalised response (CAL-120 [25]) was 76.3% and the normalised response (HCC1143 [26]) was 103%. It also gave a normalised response (DU-4475 [27]) of 92.1%, a normalised response (HCC1937 [28]) of 33% and a normalised response (MCF-10A [29]) of 54.2%. The normalised response (MFM-223 [30]) was 73.5%, the normalised response (BT-549 [31]) was 30.4% and the normalised response (CAL-148 [32]) was 10.5%. It also gave a normalised response (MDA-MB-453 [33]) of 9.28%, a normalised response (MDA-MB-231 [34]) of -85% and a normalised response (BT-474 [35]) of -10.6%. For the same compound, the normalised response (MDA-MB-436 [36]) was -6.73%.
